Data reported in ChEMBL document CHEMBL5321223, “Effects and mechanism of action of Chrysanthemum morifolium (Jinsi Huangju) on hyperlipidemia and non-alcoholic fatty liver disease” (Eur J Med Chem, 2023).

Columns and labels:
[1] = molecular target: T1, Pancreatic triacylglycerol lipase (Homo sapiens) (UniProt P16233); assay: Inhibition of Pancreatic lipase (unknown origin) using 4-methylumbelleallyl oleate as substrate at 50 uM by microplate reader assay
T1 sequence (whole entry): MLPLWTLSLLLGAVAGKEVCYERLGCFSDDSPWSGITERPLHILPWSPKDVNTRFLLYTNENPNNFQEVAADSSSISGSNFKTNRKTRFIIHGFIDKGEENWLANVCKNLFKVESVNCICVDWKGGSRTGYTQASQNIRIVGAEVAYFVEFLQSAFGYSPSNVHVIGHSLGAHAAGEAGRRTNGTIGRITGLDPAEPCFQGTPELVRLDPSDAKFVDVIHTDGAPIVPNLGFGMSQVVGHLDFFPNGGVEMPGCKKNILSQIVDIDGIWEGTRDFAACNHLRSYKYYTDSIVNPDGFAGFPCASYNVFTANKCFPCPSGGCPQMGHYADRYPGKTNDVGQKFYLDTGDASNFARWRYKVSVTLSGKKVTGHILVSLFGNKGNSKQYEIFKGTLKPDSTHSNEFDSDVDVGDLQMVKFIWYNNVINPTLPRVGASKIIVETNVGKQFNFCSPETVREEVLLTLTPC

[2] = molecular target: T1, Pancreatic triacylglycerol lipase (Homo sapiens); assay: Inhibition of Pancreatic lipase (unknown origin) using 4-methylumbelleallyl oleate as substrate at 5 uM by microplate reader assay
[3] = tested on: HepG2; assay: Hypolipidemic activity in sodium oleate and sodium palmitate induced human HepG2 cells assessed as decrease in intracellular lipid content at 5 uM by Oil Red O staining based assay; type: functional; parameters: scale not given: the % may be the effect or the level left
[4] = tested on: HepG2; assay: Hypolipidemic activity in sodium oleate and sodium palmitate induced human HepG2 cells assessed as decrease in intracellular lipid content at 50 uM by Oil Red O staining based assay; type: functional; parameters: scale not given: the % may be the effect or the level left
[5] = tested on: HepG2; assay: Cytotoxicity against human HepG2 cells assessed as reduction in cell survival at 50 uM; type: toxicity, cell-based; conditions: hepg2, 50 µM
[6] = tested on: HepG2; assay: Hypolipidemic activity in sodium oleate and sodium palmitate induced human HepG2 cells assessed as decrease in intracellular lipid content at 0.025 mg/ml by Oil Red O staining based assay; type: functional; parameters: scale not given: the % may be the effect or the level left

SMILES | inhibition [1] | inhibition [2] | Activity [3] | Activity [4] | Activity [5] | Activity [6]
O=c1cc(-c2ccc(O)cc2)oc2cc(O[C@@H]3O[C@H](CO)[C@@H](O)[C@H](O)[C@H]3O)cc(O)c12 [APIGETRIN] | 59.1% | 13.2% | 95.1% | 97.7% | Non-Toxic | 
CC[C@H](C)C(=O)O[C@H]1C[C@@H](C)C=C2C=C[C@H](C)[C@H](CC[C@@H]3C[C@@H](O)CC(=O)O3)[C@H]21 [LOVASTATIN] |  |  | 76.9% | 89.3% |  | 97%
